{
  "source": "patent US20080234368A9",
  "about": "“Therapeutic compositions and methods of use” (Trustees of Dartmouth College, priority 1998, published 2008)",
  "key": {"[1]": {"system": "3T3-L1 fibroblasts", "test": "Adipogenic differentiation, induction of GPDH", "format": "cell-based", "experimental": "CDDO induces monocytic differentiation in the poorly differentiated LCDB acute myelogenous leukemia cell line, derived from a chemotherapy-resistant patient at the NCI Pediatric Oncology Branch. FIG. 11 illustrates LCDB cells seeded in RPMI 1640/2% FBS, either alone (11A), with 2.5 ng/ml TGF-β1 (11B), with 10^−8 M CDDO (11C), or with both TGF-β1 and CDDO (11D). After 48 h, cytospin slide preparations were made and stained for α-naphthyl acetate esterase activity (kit from Sigma). PC12 cells were cultured for 5 days in gridded dishes in DMEM/10% FBS and 5% horse serum (Smith et al., 1997), either alone (11E), with 100 ng/ml 7S NGF (11F), with 10^−6 M CDDO (11G), or with both NGF and CDDO (11H). […] Methods for quantitative image analysis of size of cells and neurites have been described (De 1a Torre et al., 1997). Control cells in FIG. 11E are approximately 10 μm in diameter. 3T3-L1 cells were grown to confluency in DMEM/5% calf serum, and then treated once with CDDO in DMEM/10% FBS (FIG. 12A) or with CDDO and/or LG100268 in DMEM/10% FBS (FIG. 12B). Every two days thereafter, medium was changed to DMEM/10% FBS, without added CDD0 or LG100268. Cells were harvested on day 8 (FIG. 12A) or day 6 (FIG. 12B), and GPDH was measured in lysates, using a standard assay for consumption of NADH at 340 nm (Wise and Green, 1979). […]"}, "[2]": {"system": "PGE2 production in 18Co cells", "test": "PGE2 in culture medium of IL-1β-treated 18Co cells", "format": "cell-based, human", "details": "IL-1β 30 pg/ml", "experimental": "FIG. 14(A) illustrates Western blots; primary mouse macrophages; IFN-γ, 10 ng/ml; LPS, 2 ng/ml were added to cultures together with triterpenoids or dexamethasone (concentrations shown as […]); cells were harvested at 12 h. FIG. 14(B) illustrates Northern blots, RAW 264.7 macrophage-like cell line. IFN-γ, 10 ng/ml; LPS, 1 ng/ml; TNF-α, 10 ng/ml, were added to cultures together with CDDO or dexamethasone. RNA prepared after 12 h; GAPDH used as a loading control. FIG. 14(C) illustrates suppression of production of NO and PGEF in primary macrophages. For NO studies, cells were treated with IFN-γ, 10 ng/ml, together with CDDO (M), dexamethasone (O), TP-82 (□), or oleanolic acid (A). After 48 h, supernatants were analyzed for NO by the Griess reaction. For PGEF studies, cells were treated with IFN-γ, 5 ng/ml, and LPS, 5 ng/ml, together with the same set of inhibitors. After 48 h, PGE was measured in supernatants by immunoassay. Control values (no inhibition) for NO and PGE2 were 4.7 nmol/[…] and 2.2 ng/ml/2×10^5 cells, respectively. FIGS. (14D) and (14E) illustrate (human colon myofibroblasts) ^18Co cells grown in MEM/10% FBS; other methods are the same as reported above for macrophages. FIG. 14(D) illustrates Northern blots showing dose-response for suppression of COX-2 mRNA after induction with IL-1β (30 pg/ml). CDDO was added together with IL-1. […]"}},
  "data": [
    {"molecule": "CC1(C)CC[C@]2(C(=O)O)CC[C@]3(C)[C@H](C(=O)C=C4[C@@]5(C)C=C(C#N)C(=O)C(C)(C)[C@@H]5CC[C@]43C)[C@@H]2C1", "note": "[Compound 6, 2-cyano-3,12-dioxoolean-1,9-dien-28-oic acid]", "values": [
      {"measurement": "adipogenic differentiation, combination with RXR-selective retinoid LG100268", "setting": "[1]; CDDO with LG100268, day 6", "result": "acts synergistically"},
      {"measurement": "adipogenic differentiation, induction of GPDH", "setting": "[1]; doses as low as 10^−8 M, without insulin, dexamethasone, IBMX, day 8", "result": "caused adipogenic differentiation"},
      {"measurement": "PGE2 levels in the culture medium", "setting": "[2]", "result": "lowering of PGE2 levels"}
    ]}
  ]
}
